Calls of active or inactive are those of the source.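 Rule for the calls: active = AC50 no more than ten times the top concentration tested, that is within one log above it; inconclusive = flat curve fit with activity between 30% and 70%, or invalid poor fit; inactive = AC50 beyond ten times the top tested dose.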
System: S. cerevisiae Mot1-301 ts growth rescue, BacTiter-Glo ATP luminescence
Assay: restored Mot1-301 yeast growth at 38.5C – whole organism, S. cerevisiae, Mot1-301 ts mutant, luminescence, dose retest, SUMOylation pathway inhibitor project, confirmation (AID 463204);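 note: growth at restrictive 38.5 degrees C of Mot1-301 OY566 strain; actives raise luminescence by restoring growth of the ts mutant at high temperature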

Row | Structure (SMILES) | AC50
1 | CC[C@@H]1C/C=C\Cc2ccccc2[C@H](C(=O)C[C@@H](O)CC(C)=O)OC1=O | 8.7 µM
2 | S=C(NCCc1ccccc1)Nc1ccccc1Cl | > 42 µM (inactive)
3 | CC1(C)C2CC=C(/C=N/NC(=S)Nc3cccnc3)C1C2 (centres undefined) | > 42 µM (inactive)
4 | CC(C)C[C@@H](CO)N1CCN(Cc2cccnc2)CCC1=O | > 42 µM (inactive)
5 | CCOC(=O)c1ccc(NC(=O)CC2Sc3ncnn3C2=O)cc1 (centres undefined) | 6.96 µM
6 | CC1(OC(=O)CCc2ccccc2)C(=O)C=C2C=C(c3ccc(C#N)cc3)N(C3CCCC3)C=C2C1=O (centres undefined) | > 42 µM (inactive)
7 | CCNC(=O)NC(C(=O)OC)C12CC3CC(CC(C3)C1)C2 (centres undefined) | > 42 µM (inactive)
8 | O=C(NCCCN1CCOCC1)C1CCC(=O)N1CCc1ccccc1 (centres undefined) | > 42 µM (inactive)
9 | CCC(=O)N1c2ccc(S(=O)(=O)N3CCN(c4ccc([N+](=O)[O-])cc4)CC3)cc2CC1C (centres undefined) | > 42 µM (inactive)
10 | CCOC(=O)c1c(C)[nH]c2c1cc(O)c1ccccc12 | > 42 µM (inactive)
11 | Cn1c(=O)c2c(ncn2CC(=O)N2CCCCCC2)n(C)c1=O | > 42 µM (inactive)
12 | O=C(NCc1cccnc1)Nc1ccccc1 | > 42 µM (inactive)
13 | CC(=O)c1cccc(CN2CCCC(N3CCN(c4ccccc4F)CC3)C2)c1 (centres undefined) | > 42 µM (inactive)
14 | O=C(Nc1nccs1)c1ccc(S(=O)(=O)c2ccccc2)cc1 | > 42 µM (inactive)
15 | Cc1sc(NC(=O)c2ccc(F)cc2)c(CN2CCCCCC2)c1C | > 42 µM (inactive)
16 | O=C(Nc1ccc(Cl)cc1)N1CCC(c2nc(-c3ccc(F)cc3)no2)CC1 | > 42 µM (inactive)
17 | CN(C)c1ccc(/C=N\Nc2ccccn2)cc1 | > 42 µM (inactive)
18 | C/C(CC1(O)C(=O)Nc2ccccc21)=N\O (centres undefined) | > 42 µM (inactive)
19 | Cc1nc2ccc(NC(=O)c3ccco3)cc2s1 | > 42 µM (inactive)
20 | CCN(C(=O)Cn1nc(C)c([N+](=O)[O-])c1C)c1c(N)n(Cc2ccccc2)c(=O)[nH]c1=O | > 42 µM (inactive)
21 | CCCCc1nnc(NC(=O)CSc2nc(O)c(-c3ccccc3)c(=O)[nH]2)s1 | > 42 µM (inactive)
22 | Cn1c(SCC(=O)Nc2ccc(N3CCOCC3)c(Cl)c2)nnc1-c1ccccc1 | > 42 µM (inactive)
23 | CCCN(CC1CC1)C(=O)COc1ccccc1C(=O)NCc1ccccc1 | > 42 µM (inactive)
24 | CN(C)c1ccc2nc3ccc(=[N+](C)C)cc-3sc2c1 | > 42 µM (inactive)
25 | O=C(CCNC(=O)c1ccccc1)Nc1cccnc1 | > 42 µM (inactive)

Row | Structure (SMILES) | AC50
26 | CCOC(=O)C1(Cc2cccc(OC)c2)CCCN(S(=O)(=O)c2cccnc2)C1 (centres undefined) | > 42 µM (inactive)
27 | Cc1ccc(C(C(=O)Nc2ccc3c(c2)OCO3)N(C)C(=O)/C=C\c2ccc3c(c2)OCO3)cc1 (centres undefined) | > 42 µM (inactive)
28 | Cc1ccc(S(=O)(=O)N2[C@@H](c3ccc(Br)cc3)C(C(=O)O)=C[C@H]2CC2CCCC2)cc1 | 3.51 µM
29 | COC(=O)c1sc(NC(=O)c2ccc(Cn3cc(Cl)cn3)o2)c(C#N)c1C | > 42 µM (inactive)
30 | CCC1=Nc2cc(C(=O)NCc3ccco3)ccc2Sc2ccccc21 | > 42 µM (inactive)
31 | O=C(CCc1nc2sc3c(c2c(=O)[nH]1)CCCC3)N1CCN(c2ccccc2)CC1 | > 42 µM (inactive)
32 | Cc1ccc(SCCNC(=O)CN2C(=O)c3ccccc3S2(=O)=O)cc1 | > 42 µM (inactive)
33 | COc1ccc(NC(=O)CN2C(=O)c3ccccc3S2(=O)=O)cc1OC | > 42 µM (inactive)
34 | COCCCNCC(O)COc1cccc2[nH]c(C)cc12 (centres undefined) | > 42 µM (inactive)
35 | Cc1cc(C)n(-c2nc(-c3cccc(Cl)c3)cs2)n1 | > 42 µM (inactive)
36 | O=C(O)CCc1ccc(-c2ccccc2)n1NC(=O)c1cccs1 | > 42 µM (inactive)
37 | CC1Cc2ccccc2N1C(=O)CNc1cccc(S(=O)(=O)N2CCCC2)c1 (centres undefined) | > 42 µM (inactive)
38 | CC(SC#N)C(=O)C12CC3CC(CC(C3)C1)C2 (centres undefined) | 6.33 µM
39 | CCOc1ccc(-c2nnc(SCC(=O)N3CCCC3)o2)cc1 | > 42 µM (inactive)
40 | C=CCn1c(-c2ccc(OC)cc2)nc2ccccc21 | > 42 µM (inactive)
41 | CCc1ccc(-c2nc(SCC(=O)N3CCOCC3)n[nH]2)cc1 | > 42 µM (inactive)
42 | C=CCN1c2ccccc2[C@]23C[C@@H](C(=O)OC)N=C2NC(C(=O)OC)=C(C(=O)OC)[C@H]13 | > 42 µM (inactive)
43 | CCOc1ccc(Cn2c(SCCCCC#N)nc3c2c(=O)n(C)c(=O)n3C)cc1OCC | > 42 µM (inactive)
44 | COc1c2ccoc2nc2c(OC)c(OC[C@@H](O)C(C)(C)O)ccc12 | > 42 µM (inactive)
45 | CC(=O)Nc1cccc(C(=O)OCC(=O)NCc2ccc(F)cc2)c1 | > 42 µM (inactive)
46 | CSc1cccc(N2C(=O)C3CCCN3C2=S)c1 (centres undefined) | > 42 µM (inactive)
47 | O=C(c1cc(Cl)c(=O)n(Cc2ccc(Cl)cc2)c1)N1CCOCC1 | > 42 µM (inactive)
48 | Cc1n[nH]c(=O)nc1NCc1ccc(Cl)cc1 | > 42 µM (inactive)
49 | Cc1ccc(NC2c3ncccc3C(=O)N2C2CCCCC2)cc1C (centres undefined) | 32.5 µM
50 | Cc1cc(C)cc(NC(=O)C2CCCN(S(=O)(=O)c3ccc4[nH]c(=O)ccc4c3)C2)c1 (centres undefined) | > 42 µM (inactive)

Row | Structure (SMILES) | AC50
51 | COc1ccc(C2CC3(CC(C)(C)NC(=S)N3)Oc3cc(O)cc(C)c32)cc1 (centres undefined) | > 42 µM (inactive)
52 | N#CC(C#N)=CN=c1ccn(Cc2ccc(Cl)cc2Cl)cc1 | > 42 µM (inactive)
53 | CN(Cc1ccccc1)c1ccc(S(=O)(=O)N2CCC(C(=O)O)CC2)cc1[N+](=O)[O-] | > 42 µM (inactive)
54 | C=C(Cl)COC(=O)C1C2C=CC(C2)C1C(=O)O (centres undefined) | > 42 µM (inactive)
55 | CCc1nc2ccccc2c(C(=O)OC2CCCCC2=O)c1C (centres undefined) | > 42 µM (inactive)
56 | O=C(O)CCSc1ccc([N+](=O)[O-])cc1[N+](=O)[O-] | 8.27 µM
57 | Cc1nc(N)c(Cc2ccccc2F)c(N)n1 | > 42 µM (inactive)
58 | Cc1c(NC(=O)c2ccc(N(C)S(C)(=O)=O)cc2)c(=O)n(-c2ccccc2)n1C | > 42 µM (inactive)
59 | CCOC(=O)C1CCN(Cc2ccc(OCc3ccccc3)cc2)CC1 | > 42 µM (inactive)
60 | Cc1cc(C)c(NC(=O)Cn2c([N+](=O)[O-])cnc2C)c(C)c1 | > 42 µM (inactive)
61 | CCN1C(=NCc2cccc(Cl)c2)N[C@@H](c2cccc(F)c2)C(C(=O)OC)=C1C | > 42 µM (inactive)
62 | C=CCOc1ccccc1CN1CCCC(CCC(=O)N(C)CCc2ccccn2)C1 (centres undefined) | > 21 µM (inactive)
63 | CCCCCCNc1c(C(=O)OCC)c(=O)[nH]c2ccccc12 | > 42 µM (inactive)
64 | CCOc1ccccc1NC(=O)CSc1nc(N)c(C#N)cc1C#N | > 42 µM (inactive)
65 | Cc1onc(-c2ccccc2)c1C(=O)N/N=C/C=C/c1ccccc1 | > 42 µM (inactive)
66 | CC1(C)CCc2cc(CN3CCN(c4ccccn4)CC3)ccc2O1 | > 42 µM (inactive)
67 | COc1ccc2c(c1)[C@@]13CCC=C[C@H]1[C@@H](C2)NCC3 | > 42 µM (inactive)
68 | CCn1c(=O)n(CC)c2cc(NC(=O)c3ccccc3Cl)ccc21 | > 42 µM (inactive)
69 | O=c1/c(=C/c2ccco2)sc2nc(-c3ccccc3Br)nn12 | 5.74 µM
70 | CC(C)N(C(=S)Nc1cccc(S(=O)(=O)N(C)C)c1)c1ccccc1 | > 42 µM (inactive)
71 | COc1ccc(NS(=O)(=O)c2ccc(OCC(=O)N3CCOCC3)cc2)cc1Cl | > 42 µM (inactive)
72 | Cc1ccc(/C(N)=N/OC(=O)/C=C/c2ccccc2)cc1 | > 42 µM (inactive)
73 | CCS(=O)(=O)N1CCC(C(=O)NCCCN2CCN(c3ccccc3F)CC2)CC1 | > 42 µM (inactive)
74 | O=C(O)CCC(=O)N1N=C(c2c(-c3ccccc3)c3cc(Cl)ccc3[nH]c2=O)CC1c1ccco1 (centres undefined) | > 42 µM (inactive)
75 | O=S1(=O)CC(N2CCCCC2)C(N2CCCCC2)C1 (centres undefined) | > 42 µM (inactive)

Row | Structure (SMILES) | AC50
76 | CCCC(=O)Nc1ccc(Sc2ccc([N+](=O)[O-])cc2)cc1 | 30.9 µM
77 | Cc1cccc(Cn2c(C(=O)OC(C)C)cc3c2ccn3C)c1 | > 42 µM (inactive)
78 | Cc1ccc(-c2[nH]ncc2CNCCc2cnn(-c3ccccc3)c2)cc1C | > 42 µM (inactive)
79 | Cc1cc(C#Cc2c(-c3ccccc3)n(C)c3ccccc23)ccc1F | > 42 µM (inactive)
80 | COc1nc(OC)nc(N2CCC(C(=O)NC3CCCCCC3)CC2)n1 | > 42 µM (inactive)
81 | COC(=O)c1ccccc1NC(=O)CSc1nnnn1CC(=O)O | > 42 µM (inactive)
82 | COCCNC(=O)C(c1ccc(C)cc1)N(C(=O)CCC(=O)Nc1ccccn1)c1cccc(C)c1 (centres undefined) | > 42 µM (inactive)
83 | CCN(CC)CCNC(=O)CCn1c(=S)[nH]c2cc3c(cc2c1=O)OCO3 | > 110 µM (inactive)
84 | O=C(N1CCOCC1)C1(S(=O)(=O)c2ccccc2)CC=CC1 | > 42 µM (inactive)
85 | COc1cccc(OC)c1C(=O)Nc1ccc2c(c1)n(C)c(=O)n2C | > 42 µM (inactive)
86 | CCOC(=O)c1nc(Nc2ccccc2CC)c2ccccc2n1 | > 42 µM (inactive)
87 | CCOc1ccc(/C=N/NC(=O)c2ccc(CSc3nc4ccccc4[nH]3)cc2)cc1 | > 42 µM (inactive)
88 | COc1ccc(/C=N\NC(=O)c2cc(OCC(F)(F)F)ccc2OCC(F)(F)F)cc1 | > 42 µM (inactive)
89 | COc1ccc(CN2CCNC(=O)C2CC(=O)NCc2cn3ccc(C)cc3n2)c(OC)c1 (centres undefined) | > 42 µM (inactive)
90 | COc1ccc(CN2C(=O)C(=O)N(CC(N)=O)C2=O)cc1 | > 42 µM (inactive)
91 | CCOC(=O)c1ccc(CNC(=O)C2CCCCC2C(=O)OCC(F)(F)F)o1 (centres undefined) | > 42 µM (inactive)
92 | Cc1nn(C)c(C)c1-c1c(C#N)c(N)nc2c1CCCCCC2 | 16.9 µM
93 | NC(=O)NC(=O)COC(=O)/C=C/c1cccs1 | > 42 µM (inactive)
94 | CCC(C)c1ccc(S(=O)(=O)N2CCN(C(=O)COc3ccc4c(C)cc(=O)oc4c3)CC2)cc1 (centres undefined) | > 42 µM (inactive)
95 | O=C(c1ccc(F)cc1)C(CN1CCOCC1)c1ccccc1 (centres undefined) | 1.3 µM
96 | O=C(c1ccccc1F)N1CCCc2ccccc21 | > 42 µM (inactive)
97 | O=C(/C=C/c1ccc(Cl)cc1)NCc1ccncc1 | > 42 µM (inactive)
98 | CC(=O)N1CCc2cc(S(=O)(=O)NCCC3=CCCCC3)ccc21 | > 42 µM (inactive)
99 | CC1(C)Cc2c(c(N3CCCC3)nc3sc4c(N5CCN(CCO)CC5)ncnc4c23)CO1 | > 42 µM (inactive)
